Results published in patent US12226412B2, “Heteroaryl-ketone fused azadecalin glucocorticoid receptor modulators” (Corcept Therapeutics, Inc., priority 2012, dated 2025).

What was measured:
[1] = molecular target: T1, human recombinant GR (Homo sapiens, UniProt P04150); test: Human glucocorticoid receptor (GR) fluorescence polarisation (FP) binding assay; conditions: human recombinant GR, fluorescence polarisation binding assay; read-out: GR binding
T1 construct: purchased PanVera P2812
T1 sequence (P04150 1-777): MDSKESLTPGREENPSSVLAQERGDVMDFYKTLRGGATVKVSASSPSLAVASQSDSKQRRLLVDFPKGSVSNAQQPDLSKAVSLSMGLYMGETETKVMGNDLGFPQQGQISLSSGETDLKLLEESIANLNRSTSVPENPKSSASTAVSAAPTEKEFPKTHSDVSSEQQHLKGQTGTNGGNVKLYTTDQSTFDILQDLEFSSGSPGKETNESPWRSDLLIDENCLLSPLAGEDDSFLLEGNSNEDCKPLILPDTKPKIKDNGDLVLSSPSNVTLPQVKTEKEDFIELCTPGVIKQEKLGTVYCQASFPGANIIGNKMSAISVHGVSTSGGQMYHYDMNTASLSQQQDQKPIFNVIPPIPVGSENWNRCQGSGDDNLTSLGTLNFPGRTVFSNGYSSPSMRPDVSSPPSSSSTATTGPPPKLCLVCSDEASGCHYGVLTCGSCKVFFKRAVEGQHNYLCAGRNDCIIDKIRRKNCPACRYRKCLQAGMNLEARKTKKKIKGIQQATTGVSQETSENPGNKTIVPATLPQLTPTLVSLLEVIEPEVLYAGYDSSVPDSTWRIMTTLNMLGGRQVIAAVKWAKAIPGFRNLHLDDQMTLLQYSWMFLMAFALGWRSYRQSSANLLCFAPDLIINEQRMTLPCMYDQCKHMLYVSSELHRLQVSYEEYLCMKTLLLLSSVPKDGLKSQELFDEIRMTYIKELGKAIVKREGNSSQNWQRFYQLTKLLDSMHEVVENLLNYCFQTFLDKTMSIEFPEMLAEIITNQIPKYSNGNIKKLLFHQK
How it was run: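 Competition fluorescence polarisation: 0.5 nM GS Red labelled glucocorticoid and 1 nM recombinant human GR with 8-point half-log compound series, 1% DMSO, 4 h room temperature, potassium phosphate pH 7.4 buffer with molybdate, EDTA, DTT. Affinity derived from the drop in polarisation, normalised to blank wells.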

[2] = system: induction of TAT by dexamethasone in HepG2 cells; test: HepG2 tyrosine aminotransferase (TAT) assay; assay type: cell-based, human; conditions: HepG2 cells, challenge of 100 nM dexamethasone; Ki from IC50 by Cheng and Prusoff equation

## Cc1ccc(S(=O)(=O)N2CCC3=Cc4c(cnn4-c4ccc(F)cc4)C[C@]3(C(=O)c3ccccn3)C2)cc1Cl [Example 11BG, (R)-(6-((3-chloro-4-methylphenyl)sulfonyl)-1-(4-fluorophenyl)-4,4a,5,6,7,8-hexahydro-1H-pyrazolo[3,4-g]isoquinolin-4a-yl)(pyridin-2-yl)methanone]
[1]
  Ki: < 0.5 nM
[2]
  Ki: < 20 nM

## O=C(c1ccnc(N2CCCC2)c1)[C@]12Cc3cnn(-c4ccc(F)cc4)c3C=C1CCN(S(=O)(=O)c1ccc(F)c(F)c1)C2 [Example 11BH, (R)-(6-((3,4-difluorophenyl)sulfonyl)-1-(4-fluorophenyl)-4,4a,5,6,7,8-hexahydro-1H-pyrazolo[3,4-g]isoquinolin-4a-yl)(2-(pyrrolidin-1-yl)pyridin-4-yl)methanone]
[1]
  Ki: > 1 nM
[2]
  Ki: ≥ 100 nM

## Cn1ccc(S(=O)(=O)N2CCC3=Cc4c(cnn4-c4ccc(F)cc4)C[C@]3(C(=O)c3cc(C(F)(F)F)ccn3)C2)n1 [Example 11BI, (R)-(1-(4-fluorophenyl)-6-((1-methyl-1H-pyrazol-3-yl)sulfonyl)-4,4a,5,6,7,8-hexahydro-1H-pyrazolo[3,4-g]isoquinolin-4a-yl)(4-(trifluoromethyl)pyridin-2-yl)methanone]
[1]
  Ki: < 0.5 nM
[2]
  Ki: < 20 nM

## Cn1ccc(S(=O)(=O)N2CCC3=Cc4c(cnn4-c4ccc(F)cc4)C[C@]3(C(=O)c3ccccn3)C2)n1 [Example 11BJ, (R)-(1-(4-fluorophenyl)-6-((1-methyl-1H-pyrazol-3-yl)sulfonyl)-4,4a,5,6,7,8-hexahydro-1H-pyrazolo[3,4-g]isoquinolin-4a-yl)(pyridin-2-yl)methanone]
[1]
  Ki: < 0.5 nM
[2]
  Ki: 20 to 100 nM

## Cc1[nH]ncc1S(=O)(=O)N1CCC2=Cc3c(cnn3-c3ccc(F)cc3)C[C@]2(C(=O)c2cc(C(F)(F)F)ccn2)C1 [Example 11BK, (R)-(1-(4-fluorophenyl)-6-((5-methyl-1H-pyrazol-4-yl)sulfonyl)-4,4a,5,6,7,8-hexahydro-1H-pyrazolo[3,4-g]isoquinolin-4a-yl)(4-(trifluoromethyl)pyridin-2-yl)methanone]
[1]
  Ki: < 0.5 nM
[2]
  Ki: < 20 nM

## N#Cc1cccc(S(=O)(=O)N2CCC3=Cc4c(cnn4-c4ccc(F)cc4)C[C@]3(C(=O)c3cc(C(F)(F)F)ccn3)C2)c1 [Example 11BL, (R)-3-((1-(4-fluorophenyl)-4a-(4-(trifluoromethyl)picolinoyl)-4a,5,7,8-tetrahydro-1H-pyrazolo[3,4-g]isoquinolin-6 (4H)-yl)sulfonyl)benzonitrile]
[1]
  Ki: < 0.5 nM
[2]
  Ki: < 20 nM

## Cn1nccc1S(=O)(=O)N1CCC2=Cc3c(cnn3-c3ccc(F)cc3)C[C@]2(C(=O)c2cc(C(F)(F)F)ccn2)C1 [Example 11BM, (R)-(1-(4-fluorophenyl)-6-((1-methyl-1H-pyrazol-5-yl)sulfonyl)-4,4a,5,6,7,8-hexahydro-1H-pyrazolo[3,4-g]isoquinolin-4a-yl)(4-(trifluoromethyl)pyridin-2-yl)methanone]
[1]
  Ki: < 0.5 nM
[2]
  Ki: < 20 nM

## Cc1c(S(=O)(=O)N2CCC3=Cc4c(cnn4-c4ccc(F)cc4)C[C@]3(C(=O)c3cc(C(F)(F)F)ccn3)C2)cnn1C [Example 11BN, (R)-(6-((1,5-dimethyl-1H-pyrazol-4-yl)sulfonyl)-1-(4-fluorophenyl)-4,4a,5,6,7,8-hexahydro-1H-pyrazolo[3,4-g]isoquinolin-4a-yl)(4-(trifluoromethyl)pyridin-2-yl)methanone]
[1]
  Ki: < 0.5 nM
[2]
  Ki: < 20 nM

## O=C(c1cc(C(F)(F)F)ccn1)[C@]12Cc3cnn(-c4ccc(F)cc4)c3C=C1CCN(S(=O)(=O)c1cn[nH]c1)C2 [Example 11BO, (R)-(6-((1H-pyrazol-4-yl)sulfonyl)-1-(4-fluorophenyl)-4,4a,5,6,7,8-hexahydro-1H-pyrazolo[3,4-g]isoquinolin-4a-yl)(4-(trifluoromethyl)pyridin-2-yl)methanone]
[1]
  Ki: < 0.5 nM
[2]
  Ki: < 20 nM

## Cn1cc(S(=O)(=O)N2CCC3=Cc4c(cnn4-c4ccc(F)cc4)C[C@]3(C(=O)c3ccccn3)C2)c(C(F)(F)F)n1 [Example 11BP, (R)-(1-(4-fluorophenyl)-6-((1-methyl-3-(trifluoromethyl)-1H-pyrazol-4-yl)sulfonyl)-4,4a,5,6,7,8-hexahydro-1H-pyrazolo[3,4-g]isoquinolin-4a-yl)(pyridin-2-yl)methanone]
[1]
  Ki: < 0.5 nM
[2]
  Ki: ≥ 100 nM

## O=C(c1cc(C(F)(F)F)ccn1)[C@]12Cc3cnn(-c4ccc(F)cc4)c3C=C1CCN(S(=O)(=O)c1cc(F)c(F)c(F)c1)C2 [Example 11BQ, (R)-(1-(4-fluorophenyl)-6-((3,4,5-trifluorophenyl)sulfonyl)-4,4a,5,6,7,8-hexahydro-1H-pyrazolo[3,4-g]isoquinolin-4a-yl)(4-(trifluoromethyl)pyridin-2-yl)methanone]
[1]
  Ki: > 1 nM
[2]
  Ki: < 20 nM

## Cn1ccc(S(=O)(=O)N2CCC3=Cc4c(cnn4-c4ccc(Cl)cc4)C[C@]3(C(=O)c3cc(C(F)(F)F)ccn3)C2)n1 [Example 11BR, (R)-(1-(4-chlorophenyl)-6-((1-methyl-1H-pyrazol-3-yl)sulfonyl)-4,4a,5,6,7,8-hexahydro-1H-pyrazolo[3,4-g]isoquinolin-4a-yl)(4-(trifluoromethyl)pyridin-2-yl)methanone]
[1]
  Ki: 0.5 to 1 nM
[2]
  Ki: < 20 nM

## O=C(c1ccccn1)[C@]12Cc3cnn(-c4ccc(F)cc4)c3C=C1CCN(S(=O)(=O)c1cn[nH]c1)C2 [Example 11BS, (R)-(6-((1H-pyrazol-4-yl)sulfonyl)-1-(4-fluorophenyl)-4,4a,5,6,7,8-hexahydro-1H-pyrazolo[3,4-g]isoquinolin-4a-yl)(pyridin-2-yl)methanone]
[1]
  Ki: 0.5 to 1 nM
[2]
  Ki: 20 to 100 nM

## Cn1ccc(S(=O)(=O)N2CCC3=Cc4c(cnn4-c4ccc(C(F)(F)F)cc4)C[C@]3(C(=O)c3ccccn3)C2)n1 [Example 11BT, (R)-(6-((1-methyl-1H-pyrazol-3-yl)sulfonyl)-1-(4-(trifluoromethyl)phenyl)-4,4a,5,6,7,8-hexahydro-1H-pyrazolo[3,4-g]isoquinolin-4a-yl)(pyridin-2-yl)methanone]
[1]
  Ki: > 1 nM
[2]
  Ki: ≥ 100 nM

## O=C(c1cscn1)[C@]12Cc3cnn(-c4ccc(F)cc4)c3C=C1CCN(S(=O)(=O)c1ccc(F)c(F)c1)C2 [Example 11BU, (R)-(6-((3,4-difluorophenyl)sulfonyl)-1-(4-fluorophenyl)-4,4a,5,6,7,8-hexahydro-1H-pyrazolo[3,4-g]isoquinolin-4a-yl)(thiazol-4-yl)methanone]
[1]
  Ki: > 1 nM
[2]
  Ki: 20 to 100 nM

## Cc1nc(S(=O)(=O)N2CCC3=Cc4c(cnn4-c4ccc(F)cc4)C[C@]3(C(=O)c3cc(C(F)(F)F)ccn3)C2)cn1C [Example 11BV, (R)-(6-((1,2-dimethyl-1H-imidazol-4-yl)sulfonyl)-1-(4-fluorophenyl)-4,4a,5,6,7,8-hexahydro-1H-pyrazolo[3,4-g]isoquinolin-4a-yl)(4-(trifluoromethyl)pyridin-2-yl)methanone]
[1]
  Ki: < 0.5 nM
[2]
  Ki: < 20 nM

## Cc1ncc(S(=O)(=O)N2CCC3=Cc4c(cnn4-c4ccc(F)cc4)C[C@]3(C(=O)c3cc(C(F)(F)F)ccn3)C2)n1C [Example 11BW, (R)-(6-((1,2-dimethyl-1H-imidazol-5-yl)sulfonyl)-1-(4-fluorophenyl)-4,4a,5,6,7,8-hexahydro-1H-pyrazolo[3,4-g]isoquinolin-4a-yl)(4-(trifluoromethyl)pyridin-2-yl)methanone]
[1]
  Ki: > 1 nM
[2]
  Ki: 20 to 100 nM

## Cn1ccnc1S(=O)(=O)N1CCC2=Cc3c(cnn3-c3ccc(F)cc3)C[C@]2(C(=O)c2cc(C(F)(F)F)ccn2)C1 [Example 11BX, (R)-(1-(4-fluorophenyl)-6-((1-methyl-1H-imidazol-2-yl)sulfonyl)-4,4a,5,6,7,8-hexahydro-1H-pyrazolo[3,4-g]isoquinolin-4a-yl)(4-(trifluoromethyl)pyridin-2-yl)methanone]
[1]
  Ki: 0.5 to 1 nM
[2]
  Ki: < 20 nM

## CCn1cnc(S(=O)(=O)N2CCC3=Cc4c(cnn4-c4ccc(F)cc4)C[C@]3(C(=O)c3cc(C(F)(F)F)ccn3)C2)c1 [Example 11BY, (R)-(6-((1-ethyl-1H-imidazol-4-yl)sulfonyl)-1-(4-fluorophenyl)-4,4a,5,6,7,8-hexahydro-1H-pyrazolo[3,4-g]isoquinolin-4a-yl)(4-(trifluoromethyl)pyridin-2-yl)methanone]
[1]
  Ki: < 0.5 nM
[2]
  Ki: < 20 nM

## CCn1cc(S(=O)(=O)N2CCC3=Cc4c(cnn4-c4ccc(F)cc4)C[C@]3(C(=O)c3cscn3)C2)cn1 [Example 11BZ, (R)-(6-((1-ethyl-1H-pyrazol-4-yl)sulfonyl)-1-(4-fluorophenyl)-4,4a,5,6,7,8-hexahydro-1H-pyrazolo[3,4-g]isoquinolin-4a-yl)(thiazol-4-yl)methanone]
[1]
  Ki: < 0.5 nM
[2]
  Ki: 20 to 100 nM
